“And” between values parts separate entries of the source, which are not always exact repeats. Equal values may be shown once.
Legend:
[1] = biological target: Adenosine receptor A2a (Homo sapiens, UniProt P29274)
[2] = biological target: T1, Alpha-2A adrenergic receptor (Homo sapiens, UniProt P08913); format: functional, cell-based
T1 sequence (P08913 whole entry): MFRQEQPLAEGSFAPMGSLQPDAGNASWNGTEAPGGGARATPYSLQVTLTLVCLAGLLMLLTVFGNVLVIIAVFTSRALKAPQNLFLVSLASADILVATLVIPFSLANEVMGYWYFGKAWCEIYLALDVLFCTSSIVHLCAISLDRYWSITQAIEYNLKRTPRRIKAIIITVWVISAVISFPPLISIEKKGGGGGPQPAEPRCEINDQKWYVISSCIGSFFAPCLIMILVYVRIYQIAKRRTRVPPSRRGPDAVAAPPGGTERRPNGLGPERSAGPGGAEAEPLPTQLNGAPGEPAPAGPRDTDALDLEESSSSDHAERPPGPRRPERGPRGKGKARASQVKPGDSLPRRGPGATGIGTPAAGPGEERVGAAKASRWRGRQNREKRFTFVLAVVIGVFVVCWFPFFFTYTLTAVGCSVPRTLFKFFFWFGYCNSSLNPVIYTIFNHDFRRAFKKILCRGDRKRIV

[3] = biological target: T2, Alpha-2C adrenergic receptor (Homo sapiens, UniProt P18825); format: functional
T2 sequence (P18825 whole entry): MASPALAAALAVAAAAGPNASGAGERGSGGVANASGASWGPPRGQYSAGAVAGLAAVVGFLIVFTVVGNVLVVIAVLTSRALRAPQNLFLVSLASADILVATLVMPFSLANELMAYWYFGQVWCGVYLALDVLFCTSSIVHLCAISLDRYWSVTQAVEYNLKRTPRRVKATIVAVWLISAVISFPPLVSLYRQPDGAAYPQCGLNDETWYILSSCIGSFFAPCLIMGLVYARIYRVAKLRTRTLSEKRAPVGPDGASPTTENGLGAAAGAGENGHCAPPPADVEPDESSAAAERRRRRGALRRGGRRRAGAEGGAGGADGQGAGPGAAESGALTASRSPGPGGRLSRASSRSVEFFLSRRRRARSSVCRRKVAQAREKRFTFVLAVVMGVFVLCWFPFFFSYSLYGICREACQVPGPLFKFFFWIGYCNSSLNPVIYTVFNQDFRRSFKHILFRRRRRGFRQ

[4] = biological target: T3, Type-1 angiotensin II receptor (Homo sapiens, UniProt P30556)
T3 sequence (P30556 whole entry): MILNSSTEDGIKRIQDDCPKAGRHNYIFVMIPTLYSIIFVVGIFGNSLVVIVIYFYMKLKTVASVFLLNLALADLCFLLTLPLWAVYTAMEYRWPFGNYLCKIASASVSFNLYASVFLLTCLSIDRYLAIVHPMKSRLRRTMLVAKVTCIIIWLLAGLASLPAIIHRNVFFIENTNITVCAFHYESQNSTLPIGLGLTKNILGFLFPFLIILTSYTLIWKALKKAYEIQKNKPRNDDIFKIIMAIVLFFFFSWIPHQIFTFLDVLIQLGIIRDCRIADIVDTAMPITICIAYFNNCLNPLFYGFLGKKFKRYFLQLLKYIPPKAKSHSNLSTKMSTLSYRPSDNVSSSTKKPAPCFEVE

[5] = biological target: Vasopressin V2 receptor (Homo sapiens, UniProt P30518)
[6] = biological target: Glutamate receptor ionotropic, NMDA 1 (Rattus norvegicus, UniProt P35439)
[7] = biological target: Motilin receptor (Homo sapiens, UniProt O43193)
[8] = biological target: T4, Neuropeptide Y receptor type 1 (Homo sapiens, UniProt P25929); conditions: read-out: AC50
T4 sequence (P25929 whole entry): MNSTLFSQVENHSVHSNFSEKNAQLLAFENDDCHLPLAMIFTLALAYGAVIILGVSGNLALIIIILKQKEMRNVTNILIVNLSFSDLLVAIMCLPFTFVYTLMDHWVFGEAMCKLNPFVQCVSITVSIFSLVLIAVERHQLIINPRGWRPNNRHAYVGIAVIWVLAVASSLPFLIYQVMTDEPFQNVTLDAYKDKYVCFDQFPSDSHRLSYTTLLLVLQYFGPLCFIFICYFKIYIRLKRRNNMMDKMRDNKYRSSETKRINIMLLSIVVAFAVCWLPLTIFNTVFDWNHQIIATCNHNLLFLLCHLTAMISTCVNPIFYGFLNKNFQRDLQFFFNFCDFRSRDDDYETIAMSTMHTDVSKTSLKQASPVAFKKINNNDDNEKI

[9] = biological target: Delta-type opioid receptor (Homo sapiens, UniProt P41143)
[10] = biological target: Sodium-dependent dopamine transporter (Homo sapiens, UniProt Q01959)
[11] = biological target: Sodium-dependent noradrenaline transporter (Homo sapiens, UniProt P23975)
[12] = biological target: T5, Amine oxidase [flavin-containing] A (Homo sapiens, UniProt P21397); format: functional
T5 sequence (P21397 whole entry): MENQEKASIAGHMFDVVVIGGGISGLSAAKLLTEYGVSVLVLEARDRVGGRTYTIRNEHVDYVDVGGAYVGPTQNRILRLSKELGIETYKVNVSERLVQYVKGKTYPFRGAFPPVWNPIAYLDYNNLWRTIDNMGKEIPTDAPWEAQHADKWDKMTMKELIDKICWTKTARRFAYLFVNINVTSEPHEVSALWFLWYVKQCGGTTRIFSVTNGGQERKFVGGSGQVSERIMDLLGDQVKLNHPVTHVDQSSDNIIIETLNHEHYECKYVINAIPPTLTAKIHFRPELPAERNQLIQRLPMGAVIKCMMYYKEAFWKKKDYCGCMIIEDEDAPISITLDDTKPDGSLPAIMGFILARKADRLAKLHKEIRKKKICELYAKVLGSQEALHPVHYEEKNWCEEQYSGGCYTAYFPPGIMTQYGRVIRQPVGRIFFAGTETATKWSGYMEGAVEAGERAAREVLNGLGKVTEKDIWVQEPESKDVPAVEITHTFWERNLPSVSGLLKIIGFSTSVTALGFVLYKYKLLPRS

[13] = biological target: cGMP-inhibited 3',5'-cyclic phosphodiesterase 3A (Homo sapiens, UniProt Q14432); format: functional
Further: assay procedure not described here.

Sequence of Motilin receptor (O43193 whole entry): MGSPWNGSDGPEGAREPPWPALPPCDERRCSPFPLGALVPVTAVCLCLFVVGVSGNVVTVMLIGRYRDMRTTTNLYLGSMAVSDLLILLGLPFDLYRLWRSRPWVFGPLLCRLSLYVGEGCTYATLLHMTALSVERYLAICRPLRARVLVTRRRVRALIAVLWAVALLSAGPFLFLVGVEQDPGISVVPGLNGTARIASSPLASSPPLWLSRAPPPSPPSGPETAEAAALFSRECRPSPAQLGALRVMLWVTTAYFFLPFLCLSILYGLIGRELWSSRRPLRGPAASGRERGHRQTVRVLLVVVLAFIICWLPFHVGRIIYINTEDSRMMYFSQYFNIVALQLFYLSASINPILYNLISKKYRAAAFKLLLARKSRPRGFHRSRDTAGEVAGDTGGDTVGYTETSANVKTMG
Sequence of cGMP-inhibited 3',5'-cyclic phosphodiesterase 3A (Q14432 whole entry): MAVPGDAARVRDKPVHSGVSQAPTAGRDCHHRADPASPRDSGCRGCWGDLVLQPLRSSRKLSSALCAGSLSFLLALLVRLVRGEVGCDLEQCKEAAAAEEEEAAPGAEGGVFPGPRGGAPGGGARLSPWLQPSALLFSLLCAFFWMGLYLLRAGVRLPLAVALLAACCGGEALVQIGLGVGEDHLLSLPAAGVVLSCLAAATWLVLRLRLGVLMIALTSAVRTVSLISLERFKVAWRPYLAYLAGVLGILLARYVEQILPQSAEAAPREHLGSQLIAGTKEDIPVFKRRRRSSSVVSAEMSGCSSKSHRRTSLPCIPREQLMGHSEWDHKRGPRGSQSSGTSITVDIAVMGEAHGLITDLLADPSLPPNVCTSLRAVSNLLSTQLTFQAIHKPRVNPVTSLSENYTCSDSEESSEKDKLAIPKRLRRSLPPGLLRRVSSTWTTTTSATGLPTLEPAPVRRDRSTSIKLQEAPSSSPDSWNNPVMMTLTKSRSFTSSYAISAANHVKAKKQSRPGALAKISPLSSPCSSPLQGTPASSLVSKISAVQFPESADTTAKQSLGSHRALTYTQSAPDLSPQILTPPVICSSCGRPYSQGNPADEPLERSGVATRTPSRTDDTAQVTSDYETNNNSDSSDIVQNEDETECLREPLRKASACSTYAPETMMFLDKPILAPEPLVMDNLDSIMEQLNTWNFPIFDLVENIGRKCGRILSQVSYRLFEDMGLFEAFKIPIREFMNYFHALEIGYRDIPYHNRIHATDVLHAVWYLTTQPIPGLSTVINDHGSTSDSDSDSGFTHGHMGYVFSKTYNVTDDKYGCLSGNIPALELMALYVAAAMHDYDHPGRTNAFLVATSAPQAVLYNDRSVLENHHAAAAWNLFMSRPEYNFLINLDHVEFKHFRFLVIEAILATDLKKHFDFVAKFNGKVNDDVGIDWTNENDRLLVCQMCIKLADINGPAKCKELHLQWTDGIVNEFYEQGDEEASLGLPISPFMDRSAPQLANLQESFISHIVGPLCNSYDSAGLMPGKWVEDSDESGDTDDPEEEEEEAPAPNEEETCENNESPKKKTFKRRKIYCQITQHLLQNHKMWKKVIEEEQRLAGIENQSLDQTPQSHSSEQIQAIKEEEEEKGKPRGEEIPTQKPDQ
Sequence of Sodium-dependent noradrenaline transporter (P23975 whole entry): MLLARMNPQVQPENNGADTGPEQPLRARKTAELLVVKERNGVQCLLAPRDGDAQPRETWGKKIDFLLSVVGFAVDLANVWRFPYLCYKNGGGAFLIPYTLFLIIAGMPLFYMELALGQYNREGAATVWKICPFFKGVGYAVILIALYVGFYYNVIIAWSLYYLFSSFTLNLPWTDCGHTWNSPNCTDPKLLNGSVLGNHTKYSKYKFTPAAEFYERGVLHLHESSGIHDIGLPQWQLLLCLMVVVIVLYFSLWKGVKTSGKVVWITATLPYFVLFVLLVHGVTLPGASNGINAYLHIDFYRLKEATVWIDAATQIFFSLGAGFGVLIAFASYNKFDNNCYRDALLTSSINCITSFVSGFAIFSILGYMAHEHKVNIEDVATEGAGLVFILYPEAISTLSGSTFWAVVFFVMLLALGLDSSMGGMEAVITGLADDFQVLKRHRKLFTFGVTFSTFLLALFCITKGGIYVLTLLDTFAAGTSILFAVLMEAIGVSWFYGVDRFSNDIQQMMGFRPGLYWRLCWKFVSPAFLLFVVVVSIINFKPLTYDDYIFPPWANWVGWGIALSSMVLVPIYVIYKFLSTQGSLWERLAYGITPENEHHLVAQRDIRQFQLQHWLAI
Sequence of Delta-type opioid receptor (P41143 whole entry): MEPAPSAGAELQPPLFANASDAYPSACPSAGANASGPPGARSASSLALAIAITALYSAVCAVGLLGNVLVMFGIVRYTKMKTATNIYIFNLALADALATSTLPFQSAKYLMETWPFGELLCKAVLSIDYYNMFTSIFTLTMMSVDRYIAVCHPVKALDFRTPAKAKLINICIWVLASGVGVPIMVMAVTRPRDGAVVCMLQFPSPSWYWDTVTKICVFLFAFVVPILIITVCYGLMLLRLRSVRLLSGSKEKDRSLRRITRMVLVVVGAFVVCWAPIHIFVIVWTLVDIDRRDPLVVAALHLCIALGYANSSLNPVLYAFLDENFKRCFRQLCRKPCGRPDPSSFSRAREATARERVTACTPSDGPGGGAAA
Sequence of Vasopressin V2 receptor (P30518 whole entry): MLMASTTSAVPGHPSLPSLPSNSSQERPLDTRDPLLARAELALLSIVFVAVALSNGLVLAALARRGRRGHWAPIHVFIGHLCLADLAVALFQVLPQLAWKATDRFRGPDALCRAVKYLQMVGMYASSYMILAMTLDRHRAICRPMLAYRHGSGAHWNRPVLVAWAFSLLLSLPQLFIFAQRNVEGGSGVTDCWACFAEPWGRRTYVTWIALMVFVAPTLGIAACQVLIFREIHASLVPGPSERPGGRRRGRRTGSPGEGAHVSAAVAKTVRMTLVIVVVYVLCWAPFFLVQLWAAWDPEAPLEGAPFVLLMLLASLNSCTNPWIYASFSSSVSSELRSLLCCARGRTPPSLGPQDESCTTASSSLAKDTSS
Sequence of Adenosine receptor A2a (P29274 whole entry): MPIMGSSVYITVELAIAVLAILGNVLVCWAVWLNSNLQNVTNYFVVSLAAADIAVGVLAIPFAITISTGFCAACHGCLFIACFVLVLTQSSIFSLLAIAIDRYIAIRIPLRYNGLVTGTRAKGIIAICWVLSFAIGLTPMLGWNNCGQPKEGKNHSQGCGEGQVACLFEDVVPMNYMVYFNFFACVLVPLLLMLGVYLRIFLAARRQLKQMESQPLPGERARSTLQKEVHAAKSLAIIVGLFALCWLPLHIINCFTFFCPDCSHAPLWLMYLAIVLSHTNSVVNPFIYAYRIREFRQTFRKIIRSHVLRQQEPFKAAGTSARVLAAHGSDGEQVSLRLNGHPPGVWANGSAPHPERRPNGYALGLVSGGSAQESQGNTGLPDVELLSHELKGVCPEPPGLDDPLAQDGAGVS
Sequence of Sodium-dependent dopamine transporter (Q01959 whole entry): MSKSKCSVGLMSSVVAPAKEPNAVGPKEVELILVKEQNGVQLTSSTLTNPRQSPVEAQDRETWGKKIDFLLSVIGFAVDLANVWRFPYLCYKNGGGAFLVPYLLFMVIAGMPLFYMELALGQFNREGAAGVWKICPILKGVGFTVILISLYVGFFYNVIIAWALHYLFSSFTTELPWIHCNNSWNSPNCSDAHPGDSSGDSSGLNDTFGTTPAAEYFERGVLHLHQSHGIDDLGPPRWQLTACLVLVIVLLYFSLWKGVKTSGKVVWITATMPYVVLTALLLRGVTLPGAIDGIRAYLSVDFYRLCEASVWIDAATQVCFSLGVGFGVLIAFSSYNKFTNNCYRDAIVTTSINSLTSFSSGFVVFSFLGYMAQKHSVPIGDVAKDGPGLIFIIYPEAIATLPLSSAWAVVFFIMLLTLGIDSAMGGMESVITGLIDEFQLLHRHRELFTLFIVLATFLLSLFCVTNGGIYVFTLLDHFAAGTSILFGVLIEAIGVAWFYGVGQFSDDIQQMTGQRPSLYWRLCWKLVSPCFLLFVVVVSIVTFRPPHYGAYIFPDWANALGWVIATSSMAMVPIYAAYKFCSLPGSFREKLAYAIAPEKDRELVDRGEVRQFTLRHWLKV

Structure (SMILES)	AC50 [1]	AC50 [2]	AC50 [3]	AC50 [4]	AC50 [5]	AC50 [6]	AC50 [7]	AC50 [8]	AC50 [9]	AC50 [10]	AC50 [11]	AC50 [12]	AC50 [13]
CCC(=O)O[C@]1(C(=O)SCF)[C@H](C)C[C@H]2[C@@H]3C[C@H](F)C4=CC(=O)C=C[C@]4(C)[C@@]3(F)[C@@H](O)C[C@@]21C [FLUTICASONE PROPIONATE]	> 30 µM	> 30 µM	> 30 µM	> 30 µM	> 30 µM	> 30 µM	> 30 µM	> 30 µM	> 30 µM	> 30 µM	> 30 µM	> 30 µM	> 30 µM
C[C@]12CCC(=O)C(O)=C1CC[C@@H]1[C@@H]2CC[C@]2(C)C(=O)CC[C@@H]12 [FORMESTANE]	> 30 µM	> 30 µM	> 30 µM	> 30 µM	> 30 µM	> 30 µM	> 30 µM	> 30 µM	> 30 µM	> 30 µM	> 30 µM	> 30 µM	> 30 µM
C[C@]12CC[C@@H]3c4ccc(O)cc4C[C@@H](CCCCCCCCC[S+]([O-])CCCC(F)(F)C(F)(F)F)[C@H]3[C@@H]1CC[C@@H]2O (some centres not stated) [FULVESTRANT]	> 30 µM	> 30 µM	> 30 µM	> 30 µM	> 30 µM	> 30 µM	> 30 µM	> 30 µM	> 30 µM	> 30 µM	> 30 µM	> 30 µM	> 30 µM
CCC1(c2ccccc2)CCC(=O)NC1=O (configuration not stated) [GLUTETHIMIDE]	> 10 µM	> 10 µM	> 10 µM	> 10 µM	> 10 µM	> 10 µM	> 10 µM	> 10 µM	> 30 µM	> 10 µM	> 10 µM	> 10 µM	> 30 µM
CC(C(=O)O)c1ccc(CC2CCCC2=O)cc1 (configuration not stated) [LOXOPROFEN]	> 30 µM	> 30 µM	> 30 µM	> 30 µM	> 30 µM	> 30 µM	> 30 µM	> 30 µM	> 30 µM	> 30 µM	> 30 µM	> 30 µM	> 30 µM
C[C@H](Cc1ccc(O)c(O)c1)[C@@H](C)Cc1ccc(O)c(O)c1 [MASOPROCOL]	> 30 µM	> 10 µM	> 30 µM	> 10 µM	> 10 µM	> 10 µM	> 10 µM	> 10 µM	> 30 µM	3.4 µM and 5.4 µM and 5.2 µM	20.6 µM and 20 µM (2×)	> 30 µM	12 µM and 23 µM and 19 µM
CCOC(=O)C1=C(C)NC(C)=C(C(=O)OC)C1c1cccc([N+](=O)[O-])c1 (configuration not stated) [NITRENDIPINE]	> 30 µM	> 10 µM	> 10 µM	> 30 µM	> 30 µM	> 10 µM	> 10 µM	> 30 µM	> 30 µM	32.2 µM	> 30 µM	> 10 µM	> 30 µM
C#C[C@]1(OC(C)=O)CC[C@H]2[C@@H]3CCC4=C/C(=N/O)CC[C@@H]4[C@H]3CC[C@@]21CC [NORGESTIMATE]	> 30 µM	> 30 µM	> 30 µM	22 µM	> 30 µM	> 30 µM	> 30 µM	> 30 µM	> 30 µM	10 µM	28 µM	> 30 µM	> 30 µM
[H]/N=C(/N)N/C(=N/[H])NCCc1ccccc1 [PHENFORMIN]	> 30 µM	> 10 µM	> 30 µM	> 30 µM	> 30 µM	2.32 µM	> 10 µM	> 30 µM	> 30 µM	25.2 µM	18.3 µM	> 30 µM	22 µM
CCCCC1C(=O)N(c2ccccc2)N(c2ccccc2)C1=O [PHENYLBUTAZONE]	> 30 µM	> 10 µM	> 10 µM	> 30 µM	> 30 µM	> 10 µM	> 30 µM	> 30 µM	> 30 µM	> 30 µM	> 30 µM	> 10 µM	> 30 µM
CC(N)C(O)c1ccccc1 (configuration not stated) [PHENYLPROPANOLAMINE]	> 30 µM	> 10 µM	7.3 µM	> 30 µM	> 30 µM	> 10 µM	> 10 µM	> 30 µM	> 10 µM	> 30 µM	> 30 µM	> 10 µM	> 30 µM
Clc1ccc2c(N3CCN(CCCN4CCN(c5ccnc6cc(Cl)ccc56)CC4)CC3)ccnc2c1 [PIPERAQUINE]	> 30 µM	> 30 µM	> 30 µM	> 30 µM	> 30 µM	> 30 µM	> 30 µM	> 30 µM	> 30 µM	> 30 µM	> 30 µM	> 30 µM	4.7 µM
Cc1noc(NS(=O)(=O)c2ccc(N)cc2)c1C [SULFISOXAZOLE]	> 10 µM	> 10 µM	> 10 µM	> 10 µM	> 10 µM	> 10 µM	> 10 µM	> 10 µM	> 30 µM	> 10 µM	> 10 µM	> 10 µM	> 30 µM
CC1(C)S[C@@H]2[C@H](NC(=O)[C@H](N)c3ccccc3)C(=O)N2[C@H]1C(=O)OCOC(=O)[C@@H]1N2C(=O)C[C@H]2S(=O)(=O)C1(C)C [SULTAMICILLIN]	> 30 µM	> 30 µM	> 30 µM	> 30 µM	> 30 µM	> 30 µM	> 30 µM	> 30 µM	> 30 µM	> 30 µM	> 30 µM	> 30 µM	> 30 µM

Reference: ChEMBL document CHEMBL5291721, “A preclinical secondary pharmacology resource illuminates target-adverse drug reaction associations of marketed drugs” (Nat Commun, 2023)
